# Key:
# [1] = human, 50 micromolar
# Text: A portion of this flux is due to damage of the gastric tissue preparation during mounting in the Ussing chambers. To correct for flux due to edge damage, the flux rate was subtracted prior to omeprazole addition from the flux rate after omeprazole addition. However, the added issue of decline in cell viability over the course of any experiment, and its contribution to overall leak, still remains (this is generally observed in the modest decline in transepithelial electrical resistance over experimental running time).
# [2] = test system: rat gastric corpus mucosa; assay: Transepithelial drug flux studies (3H-digoxin, 14C-phenytoin, mucosal to serosal) before and after omeprazole or DMSO; assay type: in vitro ADME; settings: for Post-Omeprazole Flux Value: after 200 μM omeprazole; for Post-Omeprazole Flux Value / Post-DMSO Flux Value: corrected by TLC; for Pre-Omeprazole Flux Value: before 200 μM omeprazole; for % Increase in Flux After DMSO / Post-DMSO Flux Value / Pre-DMSO Flux Value: vehicle control tissue; for Pre-DMSO Flux Value: mean ± SEM
# Protocol: Sprague Dawley male rats weighing approximately 400 grams were sacrificed by decapitation and the stomach was quickly removed, cut along the greater curvature, and flushed of luminal contents. The serosal membrane was then stripped from the corpus region and two equal sized pieces of corpus mucosa were mounted in two separate Ussing chambers with exposed tissue areas of 1.13 cm^2. Chambers were connected to 15 mL gas-lift reservoirs filled with un-buffered saline aerated with 100% O2 and bicarbonate-buffered saline aerated with 95% O2/5% CO2 on the mucosal and serosal sides, respectively. Saline temperature was held constant at 37° C. by a jacketed water bath surrounding the reservoirs. 30 minutes at 37° C. was allowed for tissue equilibration. In paired experiments, one tissue served as (vehicle) ‘control’, and the other as omeprazole-treated ‘experimental’.
# After 30 minutes of tissue equilibration time in Ussing chambers, dibutyrl cyclic AMP (dBcAMP) (Sigma) was added to a final concentration of 1 mM to the serosal fluid chambers to stimulate acid secretion. […] The addition of the isotope marked the beginning of the flux period. 150 μL or 250 μL samples were taken from the serosal fluid compartment (opposite from which the isotope was added) for liquid scintillation counting (LSC). Samples were initially taken at 30 minute intervals for 90 minutes for the ^14C-phenytoin flux or at 15 minute intervals for 75 minutes for the ^3H-digoxin flux to establish the basal permeability rate (ρmoles/min/cm^2) across the tissue. 200 μM omeprazole (Sigma) (in DMSO) was then added to the mucosal and serosal sides of one chamber and an equivalent amount of DMSO (Sigma) was also added to both sides of the control chamber. Another series of serosal fluid samples were taken for LSC at 15 or 30 minute intervals for the remaining 60 minutes of ^3H-digoxin or ^14C-phenytoin flux experiments, respectfully, to determine flux rate of the radiolabeled drugs after omeprazole addition. In all cases of fluid sampling for liquid scintillation counting, an equal amount of fresh buffered saline was added back to the serosal side to prevent hydrostatic gradients from developing across the tissue. The flux of each isotope (ρmole/min/cm^2) was determined by calculating the linear regression slope of the graph of cpm versus time, and converting cpm to picomoles after determining the specific activity of the drug in the mucosal fluid.
# To observe if the omeprazole-induced leak allows for permeation of certain small molecule drugs, ^3H-digoxin was added to the mucosal fluid compartment and saline samples were taken at 15 minute intervals from the serosal fluid compartments for a 135-minute flux period. Omeprazole and/or DMSO were added to their respective tissues 75 minutes after the addition of the isotope. Radioactivity present in the serosal fluid compartment was measured as a function of time before and after the addition of omeprazole or DMSO.
# [3] = test system: rat gastric corpus mucosa; assay: Transepithelial electrical resistance and short circuit current in Ussing chambers; settings: 0.05 mM digoxin, 0.1 mM phenytoin
# Protocol: (§1) Water-jacketed reservoirs maintained chamber saline at 37° C.
# (§2) In order to confirm stimulation of acid secretion by secretagogue addition and to verify the efficacy of the PPI, mucosal fluid compartment pH was recorded at intervals throughout the experiment with a manual electrode (Denver Instruments, Denver, Colo.). Ag/AgCl voltage and current electrodes were used to measure PD (potential difference) and ISC (short circuit current) approximately every five minutes for the duration of the experiment, as previously described (Hameed et al. (2004) Dig. Dis. Sci., 49:1381-1386), using two single-channel current/voltage clamps (McGrath Research and Technology). Ohm's Law was used to calculate transepithelial electrical resistance across the tissue.
# Electrical parameters were monitored throughout the duration of the experiment. Tissues were maintained under open circuit conditions. […] Tissue voltage (potential difference), short circuit current, and transepithelial resistance were recorded approximately every five minutes for the duration of the experiment, by passing a one-second current pulse equal to biological current to bring the potential difference to zero using a current/voltage clamp (McGrath Research & Technology). Transepithelial resistance was calculated by dividing open circuit potential difference by short circuit current (Ohm's law).
# [4] = test system: healthy controls; assay: Sucrose leak test before and after five days of omeprazole or famotidine; assay type: in vivo, human
# Protocol: An 8 hour overnight urine sample was collected in a container with 5 ml of 10% thymol in isopropanol as antimicrobial preservative. A courier service picked up urine containers at the patient's home and delivered them to the research laboratory. Total urine volume and refractive index were measured and recorded. […] This amount of sucrose equates to the amount of sucrose which leaked from the upper GI lumen.
# H-2 blockers such as PEPCID® (famotidine) also cause a GI leak. The instant study was first performed with 20 subjects, all healthy controls. Randomly 10 were put on PPIs (20 mg of omeprazole), 10 on H-2 blockers (40 mg of famotidine). These amounts are standard for acid suppression therapy. […] They were given doses of these drugs in the morning for five days. A sucrose leak test was done the night of the fifth and last day.
# Therefore, a second H-2 blocker study was performed looking at leak in an n=5 group but doing evening doses of famotidine and maintaining the other aspects of the above study, with the post H-2 blocker leak test performed again the night of the 5th dose, but now only with a 4-6 hours after the 5th and final dose.
# [5] = test system: patients; settings: Wilde et al. (1994); cited from earlier work
# [6] = test system: rat gastric corpus mucosa; assay: Acid secretion (mucosal fluid pH) of dB-cAMP stimulated tissue in Ussing chambers; settings: Rattus norvegicus; 25 μM omeprazole, plateau; read-out: inhibition of acid secretion (no further decrease in mucosal fluid pH)
# Protocol: as §1, §2
# Mucosal and serosal saline pH measurements were taken at approximately five minute intervals using a manual electrode (Denver Instruments) to ensure that the tissue was secreting acid. Mucosal pH readings were also taken before and after the addition of omeprazole to document the action of omeprazole on inhibiting acid secretion. Tissue viability was confirmed at the end of each experiment by tissue exposure to 10 mM amiloride in the mucosal fluid compartment in order to inhibit short circuit current.
# [7] = test system: rat gastric corpus mucosa; assay: Transepithelial flux of 14C-labeled probes (mannitol, sucrose, polyethylene glycol) before and after PPI; settings: for % Increase in Flux of 14C-[D]-mannitol: 200 μM PPI
# Protocol: In each experiment, one adult male Sprague Dawley rat was sacrificed by decapitation. The stomach was removed, flushed, and stripped of its outer serosal membrane, while being frequently moistened with chilled, unbuffered saline. Two pieces of corpus mucosa were mounted in modified Ussing chambers, with exposed tissue surface area of 1.13 cm^2. Chambers were connected to gas-lift reservoirs, with a fluid volume of 17 mL per hemichamber. The mucosal hemichamber was filled with unbuffered saline (with 17 mM glucose) and kept aerated and perfused with 100% O2 at 37° C. […] Water-jacketed reservoirs maintained chamber saline at 37° C.
# KRB was adjusted to a pH of 7.3-7.4.
# Unbuffered saline was gassed with 100% O2 and was used to bathe the mucosal side of the gastric mucosa.
# Approximately 30 minutes after tissues were mounted in Ussing chambers, dibutyrl cyclic AMP (dB-cAMP) (Sigma, St. Louis, Mo.) was added to the serosal sides of both chambers to a concentration of 1 mM in order to stimulate acid output by the tissue.
# Three experiments were performed with each PPI, examining gastric permeability to ^14C-mannitol.
# Three experiments were performed at each omeprazole concentration.
# [8] = Kiley et al. (2007); cited from earlier work
# [9] = test system: rat gastric corpus; assay type: in vitro ADME; settings: omeprazole-treated vs control
# Protocol: The numbers provided hereinbelow (Table 6) represent the transepithelial diffusion (mucosal to serosal) of radiolabeled bradykinin. […] It includes only intact bradykinin.
# Two data sets from two experiments are provided. These are bradykinin fluxes in picomoles/min/cm^2. One tissue was treated only with DMSO (vehicle control). […] The other tissue (paired pieces of rat gastric corpus) is treated with omeprazole in DMSO. […] The bradykinin leak in controls is likely due to ‘experimental artifact’—in this case mechanical damage of the tissue in handling plus incubation. The increase in flux (leak) of bradykinin seen with DMSO may not be a function of the DMSO at all, but instead simply be a result of tissue ‘breakdown’ over time due to the tissue's very finite lifespan once out of the animal.
# [10] = test system: rat gastric corpus mucosa; assay type: in vitro ADME
# Protocol: Additional saline samples were taken from the mucosal and serosal fluid compartments one minute before the addition of omeprazole/DMSO and at the end of the entire flux period to allow for thin-layer chromatography (TLC) analysis of radioactivity that crossed the tissue. TLC was performed to account for the potential contribution of radiolabeled metabolites to total radioactivity crossing the epithelial barrier, in the event of drugs entering gastric epithelial cells and metabolites being effluxed. Saline samples were taken from both surfaces of the tissue to determine possible degradation of the molecule upon exposure to the mucosal surface of the tissue as well as to analyze the chemical nature of the radioactivity that crossed the tissue. […] TLC was performed on silica gel 60 plates (Kodak) by spotting very small amounts of the concentrated sample. Plates were then placed in a sandwich tank and a variety of mobile phases were employed, including butanol/acetic acid/water (120:30:50), isopropanol/water (120:30), and ethyl acetate/methanol/water (81:11:8).
smiles,measurement,setting,value
C[C@H]1O[C@@H](O[C@H]2[C@@H](O)C[C@H](O[C@H]3[C@@H](O)C[C@H](O[C@H]4CC[C@@]5(C)[C@H](CC[C@@H]6[C@@H]5C[C@@H](O)[C@]5(C)[C@@H](C7=CC(=O)OC7)CC[C@]65O)C4)O[C@@H]3C)O[C@@H]2C)C[C@H](O)[C@@H]1O [digoxin],total gastric corpus-wide flux,[1],900 picomoles/minute
same,% Increase in Flux After Omeprazole,"[2]; 0.05 mM probe, 200 μM omeprazole, P<0.03 vs DMSO",82.2%
same,% Increase in Flux After Omeprazole,"[2]; 0.05 mM probe, 200 μM omeprazole, P<0.03 vs DMSO, listed as 3H-Digoxin",82.2% ± 7.7%
same,Post-Omeprazole Flux Value,[2]; 0.05 mM probe,9.4 ± 0.6 ρmole/min/cm^2
same,Pre-Omeprazole Flux Value,"[2]; 0.05 mM probe, 4 experiments",5.1 ± 0.2 ρmole/min/cm^2
same,% Increase in Flux After DMSO,[2]; 0.05 mM probe,50.9%
same,Post-DMSO Flux Value,[2]; 0.05 mM probe,7.2 ± 1.5 ρmole/min/cm^2
same,% Increase in Flux After DMSO,"[2]; 0.05 mM probe, listed as 3H-Digoxin",50.9% ± 7.0%
same,Pre-DMSO Flux Value,"[2]; 0.05 mM probe, 4 experiments",4.8 ± 1.0 ρmole/min/cm^2
same,increase in flux of total radioactivity (tritium) after omeprazole addition,"[2]; 200 μM omeprazole, not corrected by TLC, SEM",84%
same,"increase in flux of total radioactivity (tritium), vehicle control","[2]; DMSO, not corrected by TLC",50%
same,final flux of true 3H-digoxin,"[2]; in the presence of omeprazole, 0.05 mM digoxin",approximately 9 picomoles/min/cm^2
same,final omeprazole-dependent 3H-digoxin flux,"[2]; omeprazole flux minus DMSO flux, 4 paired experiments, SEM",1.8±0.4 picomoles/min/cm^2
same,effect of the probe drug itself on transepithelial electrical resistance or short circuit current,[3],not themselves exerting an effect
COc1ccc2[nH]c([S+]([O-])Cc3ncc(C)c(OC)c3C)nc2c1 (stereo not shown) [omeprazole],pre-med sucrose leak,"[4]; baseline before medication, n=10 per group, SEM",42 mg
same,post med sucrose leak,"[4]; morning doses for five days (20 mg omeprazole or 40 mg famotidine), test night of fifth day, n=10",212 mg
same,patients with diarrhea,[5],1-3%
same,patients with headache,[5],0.5-2.4%
same,patients with nausea,[5],0.9-2%
same,inhibition at 25 µM,[6],100%
same,% Increase in Flux of 14C-[D]-mannitol,[7],68.72%
same,% Increase in Flux of 14C-[D]-mannitol,[7]; listed as Omeprazole,68.72 +/− 8.32%
same,effect on transepithelial permeability at low concentrations,"[7]; 1, 5, or 10 μM omeprazole, 14C-mannitol",no significant effect
same,concentration at which marked transepithelial permeability increase first occurred,"[7]; 14C-mannitol, 1-200 μM tested, plateau at 100 and 200 μM",25 µM
same,increase of serum levels of digoxin by omeprazole,[8],more than 350%
"CC[C@H](C)[C@@H]1NC(=O)[C@H](Cc2ccc(O)cc2)NC(=O)[C@@H](N)CSSC[C@@H](C(=O)N2CCC[C@H]2C(=O)N[C@@H](CC(C)C)C(=O)NCC(N)=O)NC(=O)[C@H](CC(N)=O)NC(=O)[C@H](CCC(N)=O)NC1=O [oxytocin, Cys-Tyr-Iso-Gln-Asn-Cys-Pro-Leu-Gly]",leak with omeprazole over control,[9],not observed
O=C1NC(=O)C(c2ccccc2)(c2ccccc2)N1 [phenytoin],metabolic breakdown on crossing the gastric mucosa,[10],no metabolic breakdown
same,co-migration of serosal radioactivity with pure phenytoin standard,"[10]; male, Sprague Dawley, rat, 0.1 mM",100%
same,% Increase in Flux After Omeprazole,"[2]; 0.1 mM probe, 200 μM omeprazole, listed as 14C-Phenytoin",54.4% ± 7.7%
same,% Increase in Flux After Omeprazole,"[2]; 0.1 mM probe, 200 μM omeprazole, listed as 14C-phenytoin",54.4%
same,Post-Omeprazole Flux Value,[2]; 0.1 mM probe,119.4 ± 12.9 ρmole/min/cm^2
same,Pre-Omeprazole Flux Value,"[2]; 0.1 mM probe, 3 experiments",78.3 ± 11.4 ρmole/min/cm^2
same,% Increase in Flux After DMSO,[2]; 0.1 mM probe,69.3%
same,Post-DMSO Flux Value,[2]; 0.1 mM probe,120.0 ± 14.7 ρmole/min/cm^2
same,% Increase in Flux After DMSO,"[2]; 0.1 mM probe, listed as 14C-Phenytoin",69.3% ± 13.9%
same,Pre-DMSO Flux Value,"[2]; 0.1 mM probe, 3 experiments",71.9 ± 9.8 ρmole/min/cm^2
same,effect of the probe drug itself on transepithelial electrical resistance or short circuit current,[3],not themselves exerting an effect

# Source: patent US20110046079A1, “Use of Proton Pump Inhibitors as Drug Delivery Adjuvants” (priority 2008, published 2011)
